Tests used:
hair growth cycle = conditions: animal studies; topical; co-pending application 60/544,116; cited from earlier work
[1] = In-vitro human cadaver skin permeation, Franz diffusion cell; type: in vitro ADME; conditions: for Mean Percentage of Radioactivity Recovered at 24 Hours, Dermis / Mean Percentage of Radioactivity Recovered at 24 Hours, Epidermis / Mean Percentage of Radioactivity Recovered at 24 Hours, Receptor / Mean Percentage of Radioactivity Recovered at 24 Hours, Surface / Mean Percentage of Radioactivity Recovered at 24 Hours, Total: Compound 0.96% w/v
Description: Experimentally, the flux can be determined by measuring the amount of drug permeation into the receptor compartment of a Franz cell over time. The cumulative drug permeated per cm^2 is than plotted against time and the steady state permeation rate (flux, J) is calculated from the slope of the linear portion of the curve according to Fick's 1st law of diffusion.
In Examples 2-5 infra, the cumulative amount of Compound permeated through the skin as amount per surface area (μg/cm^2) was plotted against time (hours). Flux (μg/cm^2/hr) was determined by calculating the slope of the linear portion of the permeation profile. Drawing III depicts such a calculation. Typical variance in measured flux of 10 replicate samples is about 30-50%. However, if the formulation provides low flux of the Compound, indicating poor permeation through the skin, the variance could be much higher than the typical 30-50%.
This methodology utilizes a device known as the Franz Diffusion Cell. A typical device is depicted in Drawing II. The test is carried out using the following general methodology. A sample of human cadaver skin is inserted in to the area labeled as skin. The skin should be oriented so that the stratum corneum is facing the Donor Compartment and the dermis is facing the Receptor Compartment. The Receptor Compartment will be filled with a predefined solution (based on solubility of test agent). A dose of test agent, in a defined volume, is inserted into the Donor Compartment so that it may come in contact with the skin sample and potentially diffuse thru the skin into the Receptor Compartment. Samples of solution are then withdrawn from Receptor Compartment at defined time points and the concentration of test agent is determined. The amount of test agent permeated per cm^2 of skin is plotted versus time and the flux of the test agent is calculated as described above. The reader's attention is directed to Example 2, which provides a more detailed discussion of this test.
As with any testing method, the results can vary depending upon how the test is carried out. […] Thus, as used in this application including the claims, any flux determination should be carried by controlling the following parameters: • 1) Apparatus—The apparatus should be a Franz Diffusion Cell. Each cell should have a cell volume of 5.4 to 5.5 ml. Ten (10) cells should be utilized per formulation (i.e. both the test formulation and the reference formulation). As is standard in the field, the results are reported as the mean. • 2) Skin—Skin samples used for both the test formulation and the reference formulation should be human cadaver skin obtained from a single donor, who is […], between the ages of 50 and 75 and is obtained from the subjects back. […] The surface area of the skin samples should be 0.635 cm^2 (internal diameter of opening of 9 mm). The donor compartment should be maintained at room temperature (see Table A for specifics). • 3) Testing—Testing should be carried out for 24 hours. Sample should be withdrawn at the initiation of testing, and 2, 4, 12, 16, and 24 hours after initiation of testing. The sample volume should be 0.5 ml. The Compound should be present at identical concentrations in both the test formulation and the reference formulation (w/v for liquids and w/w for semi-solids). This concentration should be equal to that used in the final dosage form (i.e., what is being developed for eventual human application). A dose volume of 10 μl/0.635 cm^2 should be used. • 4) Receptor Solution—0.1% (w/v) Brij-98 in Dulbecco's phosphate buffered saline, pit 6.9 (KH2PO4 14.7 mM and Na2HPO4 80.9 mM). • 5) Barrier Integrity—The barrier integrity of human cadaver donor skin is assessed to ensure that changes in flux are attributed to the formulation versus a faulty skin barrier (e.g., cut, scrape, lesion, etc). […] The receptor fluid is assayed for these compounds. […]

[2] = Table 2, vehicle 63.5:20:8:7.5% w/w EtOH/PG/CPE-215/Water
[3] = Table 2, vehicle 70:30% w/w EtOH/PG
[4] = Table 3, vehicle 60:20:20% w/w EtOH/PG/IPM
[5] = Table 3, vehicle 63.5:20:8:7.5% w/w EtOH/PG/CPE-215/Water
[6] = Table 4, vehicle 60:20:20% w/w EtOH/PG/IPM, skin 1.03-1.19 mm
[7] = Table 4, vehicle 70:20:10% w/w EtOH/PG/IPM, skin 1.03-1.19 mm

For Cn1nc(O[C@@H]2c3cc(S(=O)(=O)c4cccc(O)c4)ccc3OC(C)(C)[C@@]2(C)O)ccc1=O [Compound, 6-[[(3S,4R)-3,4-dihydro-3-hydroxy-6-[(3-hydroxyphenyl)sulfonyl]-2,2,3-trimethyl-2H-1-benzopyran-4-yl]oxy]-2-methyl-3(2H)-pyridazinone], which “Effect on the hair growth cycle” value (hair growth cycle) is on record?
The value was “alters the hair growth cycle by inducing anagen”.

And the Flux ([1]; Example 3, Compound 0.96% w/v in ethanol:propylene glycol:Cyclopentadecanolide:Water (63.5:20:8:7.5% w/w/w/w), skin 0.71-0.96 mm and 0.90-1.04 mm)?
The Flux was 0.053±0.003 μg/cm^2/hr.

What about the Flux ([1]; Example 3, Compound 0.96% w/v in reference formulation (70% ethanol:30% propylene glycol w/w), skin 0.71-0.96 mm and 0.90-1.04 mm) of the same compound?
Its Flux is 0.004±0.006 μg/cm^2/hr.

What about the Flux ([1]; Example 4, carrier ethanol:propylene glycol:Cyclopentadecanolide:Water (63.5:20:8:7.5% w/w/w/w), skin 0.71-0.96 mm and 0.90-1.04 mm) of the same compound?
Its Flux is 0.022±0.007 μg/cm^2/hr.

What about the Flux ([1]; Example 4, carrier ethanol:propylene glycol:IPM (60:20:20% w/w/w), skin 0.71-0.96 mm and 0.90-1.04 mm) of the same compound?
The Flux was 0.017±0.008 μg/cm^2/hr.

And the Flux ([1]; Example 5, carrier ethanol:propylene glycol:IPM (60:20:20% w/w/w), skin 1.03-1.19 mm)?
The Flux was 0.011±0.003 μg/cm^2/hr.

What about the Flux ([1]; Example 5, carrier ethanol:propylene glycol:IPM (70:20:10% w/w/w), skin 1.03-1.19 mm) of the same compound?
The Flux was 0.007±0.003 μg/cm^2/hr.

What about the Flux ([1]; Example 6, Compound 1.86% w/v, carrier EtOH/PG/DMI (dimethyl isosorbide) (60:30:10% w/w)) of the same compound?
Its Flux is 0.036±0.0336 μg/cm^2/hr.

And the Flux ([1]; Example 6, Compound 1.86% w/v, carrier EtOH/PG/Miglyol 840 (50:30:20% w/w/w))?
Its Flux is 0.11±0.007 μg/cm^2/hr.

What about the Flux ([1]; Example 6, Compound 1.86% w/v, carrier ethanol:propylene glycol:IPM (50:30:20% w/w/w)) of the same compound?
Its Flux is 191±0.026 μg/cm^2/hr.

What about the “Skin permeation as compared with the reference formulation” value ([1]; FIG. 4, carrier comprising a penetration enhancer (Cyclopentadecanolide) vs reference formulation) of the same compound?
The value was “greatly enhanced”.

And the “Mean Percentage of Radioactivity Recovered at 24 Hours, Dermis” value (“Mean Percentage … at 24 Hours, Dermis” below) [1, 2]?
Its value is 0.61%.

What about the “Mean Percentage of Radioactivity Recovered at 24 Hours, Epidermis” value (“Mean Percentage … Epidermis” for short) [1, 2] of the same compound?
The value was 8.50%.

What about the “Mean Percentage of Radioactivity Recovered at 24 Hours, Receptor” value (shortened to “Mean Percentage … Receptor”) [1, 2] of the same compound?
Its value is 0.56%.

What about the “Mean Percentage of Radioactivity Recovered at 24 Hours, Surface” value (shortened to “Mean Percentage … Surface”) [1, 2] of the same compound?
Its value is 84.77%.

What about the “Mean Percentage of Radioactivity Recovered at 24 Hours, Total” value (from here on “Mean Percentage … Total”) [1, 2] of the same compound?
Its value is 94.43%.

What about the “Mean Percentage … at 24 Hours, Dermis” value [1, 3] of the same compound?
Its value is 0.06%.

What about the “Mean Percentage … Epidermis” value [1, 3] of the same compound?
Its value is 2.53%.

And the “Mean Percentage … Receptor” value [1, 3]?
The value was 0.05%.

And the “Mean Percentage … Surface” value [1, 3]?
The value was 79.30%.

And the “Mean Percentage … Total” value [1, 3]?
Its value is 81.94%.

And the “Mean Percentage … at 24 Hours, Dermis” value [1, 4]?
Its value is 0.78%.

What about the “Mean Percentage … Epidermis” value [1, 4] of the same compound?
The value was 8.04%.

And the “Mean Percentage … Receptor” value [1, 4]?
The value was 0.14%.

And the “Mean Percentage … Surface” value [1, 4]?
Its value is 79.28%.

And the “Mean Percentage … Total” value [1, 4]?
The value was 88.24%.

What about the “Mean Percentage … at 24 Hours, Dermis” value [1, 5] of the same compound?
The value was 0.76%.

And the “Mean Percentage … Epidermis” value [1, 5]?
Its value is 8.71%.

What about the “Mean Percentage … Receptor” value [1, 5] of the same compound?
The value was 0.16%.

And the “Mean Percentage … Surface” value [1, 5]?
The value was 79.36%.

And the “Mean Percentage … Total” value [1, 5]?
The value was 88.99%.

And the “Mean Percentage … at 24 Hours, Dermis” value [1, 6]?
Its value is 1.00%.

What about the “Mean Percentage … Epidermis” value [1, 6] of the same compound?
Its value is 12.00%.

What about the “Mean Percentage … Receptor” value [1, 6] of the same compound?
The value was 0.07%.

And the “Mean Percentage … Surface” value [1, 6]?
The value was 73.00%.

What about the “Mean Percentage … Total” value [1, 6] of the same compound?
The value was 86.1%.

And the “Mean Percentage … at 24 Hours, Dermis” value [1, 7]?
The value was 1.04%.

What about the “Mean Percentage … Epidermis” value [1, 7] of the same compound?
The value was 12.27%.

And the “Mean Percentage … Receptor” value [1, 7]?
Its value is 0.10%.

What about the “Mean Percentage … Surface” value [1, 7] of the same compound?
Its value is 75.24%.

And the “Mean Percentage … Total” value [1, 7]?
The value was 88.66%.
